Data: ChEMBL document CHEMBL5303765, “Data for DCP probe BAY-7081” (2023)

Legend:
[1] = target: T1, Muscarinic acetylcholine receptor M4 (Homo sapiens) (UniProt P08173); details: Compound concentration 10.0 uM
T1 sequence (whole entry): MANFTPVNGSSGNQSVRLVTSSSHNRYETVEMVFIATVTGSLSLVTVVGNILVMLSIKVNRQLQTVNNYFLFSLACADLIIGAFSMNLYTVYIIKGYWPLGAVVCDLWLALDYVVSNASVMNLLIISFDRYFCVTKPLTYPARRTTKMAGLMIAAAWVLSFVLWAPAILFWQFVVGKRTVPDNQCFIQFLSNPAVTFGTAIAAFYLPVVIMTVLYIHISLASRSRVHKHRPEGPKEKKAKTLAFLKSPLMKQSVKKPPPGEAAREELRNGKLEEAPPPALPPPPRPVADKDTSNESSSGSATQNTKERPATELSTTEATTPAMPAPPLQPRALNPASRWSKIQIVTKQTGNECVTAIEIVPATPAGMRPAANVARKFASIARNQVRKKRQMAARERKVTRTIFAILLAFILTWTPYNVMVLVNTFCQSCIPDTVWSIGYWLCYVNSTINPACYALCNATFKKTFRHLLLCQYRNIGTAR

[2] = target: T2, Mitogen-activated protein kinase kinase kinase 5 (Homo sapiens) (UniProt Q99683); experiment: MAP3K5 SGC Tm panel (DSF); details: for ΔTm: Compound concentration 10.0 uM
T2 sequence (whole entry): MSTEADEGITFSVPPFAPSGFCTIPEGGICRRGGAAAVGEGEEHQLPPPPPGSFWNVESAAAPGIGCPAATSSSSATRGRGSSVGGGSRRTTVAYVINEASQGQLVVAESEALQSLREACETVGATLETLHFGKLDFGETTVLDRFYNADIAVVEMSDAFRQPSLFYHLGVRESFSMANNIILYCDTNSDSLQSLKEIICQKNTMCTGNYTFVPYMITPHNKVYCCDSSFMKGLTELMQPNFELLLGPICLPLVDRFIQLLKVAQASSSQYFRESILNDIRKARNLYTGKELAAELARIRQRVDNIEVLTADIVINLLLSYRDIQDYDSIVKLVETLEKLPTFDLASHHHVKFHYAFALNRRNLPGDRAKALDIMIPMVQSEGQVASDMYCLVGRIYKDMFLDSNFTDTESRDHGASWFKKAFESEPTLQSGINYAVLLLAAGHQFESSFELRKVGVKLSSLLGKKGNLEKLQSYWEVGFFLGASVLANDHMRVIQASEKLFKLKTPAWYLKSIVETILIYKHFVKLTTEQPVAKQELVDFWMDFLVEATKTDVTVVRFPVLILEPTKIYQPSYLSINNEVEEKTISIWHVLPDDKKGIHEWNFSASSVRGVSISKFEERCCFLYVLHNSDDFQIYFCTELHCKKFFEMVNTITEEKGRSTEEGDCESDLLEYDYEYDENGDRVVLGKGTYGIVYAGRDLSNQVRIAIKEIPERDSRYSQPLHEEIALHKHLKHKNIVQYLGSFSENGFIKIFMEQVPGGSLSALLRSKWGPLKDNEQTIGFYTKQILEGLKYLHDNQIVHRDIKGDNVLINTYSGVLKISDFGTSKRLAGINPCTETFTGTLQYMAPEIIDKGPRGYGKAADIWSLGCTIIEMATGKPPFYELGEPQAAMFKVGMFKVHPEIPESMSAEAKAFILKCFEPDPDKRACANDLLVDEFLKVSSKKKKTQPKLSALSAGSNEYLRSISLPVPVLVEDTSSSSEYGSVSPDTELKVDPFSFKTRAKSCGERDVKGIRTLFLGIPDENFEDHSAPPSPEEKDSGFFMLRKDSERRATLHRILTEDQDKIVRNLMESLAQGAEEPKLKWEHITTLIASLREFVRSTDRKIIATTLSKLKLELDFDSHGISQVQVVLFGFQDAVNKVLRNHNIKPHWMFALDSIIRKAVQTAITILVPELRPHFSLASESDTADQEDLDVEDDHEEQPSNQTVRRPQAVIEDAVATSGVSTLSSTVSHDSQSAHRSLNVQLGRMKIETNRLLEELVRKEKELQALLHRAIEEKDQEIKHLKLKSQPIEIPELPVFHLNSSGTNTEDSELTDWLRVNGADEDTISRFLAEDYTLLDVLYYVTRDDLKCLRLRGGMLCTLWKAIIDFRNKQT

[3] = target: T3, Dual specificity mitogen-activated protein kinase kinase 6 (Homo sapiens) (UniProt P52564); experiment: MAP2K6 SGC Tm panel (DSF); details: for ΔTm: Compound concentration 10.0 uM
T3 sequence (whole entry): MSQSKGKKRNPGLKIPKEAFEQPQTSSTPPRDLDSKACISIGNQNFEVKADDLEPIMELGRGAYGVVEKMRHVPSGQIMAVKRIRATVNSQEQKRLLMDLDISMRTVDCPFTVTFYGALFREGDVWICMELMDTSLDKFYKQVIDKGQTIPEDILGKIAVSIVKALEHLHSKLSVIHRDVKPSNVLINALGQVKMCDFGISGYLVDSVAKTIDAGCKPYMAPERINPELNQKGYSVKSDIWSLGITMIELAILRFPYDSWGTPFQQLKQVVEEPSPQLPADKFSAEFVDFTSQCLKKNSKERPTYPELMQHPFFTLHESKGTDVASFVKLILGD

[4] = target: Proto-oncogene tyrosine-protein kinase Src (Homo sapiens) (UniProt P12931); experiment: SRC SGC Tm panel (DSF); details: for ΔTm: Compound concentration 10.0 uM
[5] = target: T4, Serine/threonine-protein kinase ULK3 (Homo sapiens) (UniProt Q6PHR2); experiment: ULK3 SGC Tm panel (DSF); details: for ΔTm: Compound concentration 10.0 uM
T4 sequence (whole entry): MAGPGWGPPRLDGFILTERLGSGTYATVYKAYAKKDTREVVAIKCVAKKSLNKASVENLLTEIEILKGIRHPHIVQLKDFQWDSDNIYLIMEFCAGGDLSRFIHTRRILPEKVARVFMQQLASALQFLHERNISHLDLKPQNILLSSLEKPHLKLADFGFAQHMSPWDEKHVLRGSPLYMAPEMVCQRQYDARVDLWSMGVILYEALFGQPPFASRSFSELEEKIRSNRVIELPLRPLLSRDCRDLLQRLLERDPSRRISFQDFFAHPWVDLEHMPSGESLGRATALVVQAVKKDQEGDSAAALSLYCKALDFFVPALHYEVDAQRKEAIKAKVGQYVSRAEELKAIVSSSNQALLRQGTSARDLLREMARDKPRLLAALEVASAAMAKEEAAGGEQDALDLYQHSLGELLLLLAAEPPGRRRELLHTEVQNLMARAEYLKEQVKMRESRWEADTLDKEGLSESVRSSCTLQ

Proto-oncogene tyrosine-protein kinase Src (Homo sapiens), sequence (P12931 2-536 limits assumed): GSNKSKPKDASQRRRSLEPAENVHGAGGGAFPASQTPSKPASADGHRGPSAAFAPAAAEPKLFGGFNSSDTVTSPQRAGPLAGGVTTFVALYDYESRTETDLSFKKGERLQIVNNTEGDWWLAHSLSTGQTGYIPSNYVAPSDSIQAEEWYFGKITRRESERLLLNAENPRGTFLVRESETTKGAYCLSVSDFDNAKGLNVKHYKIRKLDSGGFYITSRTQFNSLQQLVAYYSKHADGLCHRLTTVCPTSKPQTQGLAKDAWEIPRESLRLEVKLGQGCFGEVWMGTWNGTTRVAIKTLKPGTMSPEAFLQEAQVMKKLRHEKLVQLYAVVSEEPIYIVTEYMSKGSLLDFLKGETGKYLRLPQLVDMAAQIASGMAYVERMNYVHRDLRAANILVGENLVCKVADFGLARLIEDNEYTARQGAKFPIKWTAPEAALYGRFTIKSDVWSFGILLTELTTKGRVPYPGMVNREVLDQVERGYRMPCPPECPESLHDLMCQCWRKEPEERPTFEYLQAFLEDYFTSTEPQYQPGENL

SMILES: CCC[C@H]1CNCc2c1[nH]c(=O)c(C#N)c2N1CCC2(CC1)CC2
- inhibition [1]: -3.14%
- delta Tm Staurosporine positive control [2]: 17.7
- ΔTm [2]: 0.00768
- delta Tm Staurosporine positive control [3]: 12.8
- ΔTm [3]: -0.0944
- delta Tm Staurosporine positive control [4]: 7.39
- ΔTm [4]: -0.143
- delta Tm Staurosporine positive control [5]: 19.1
- ΔTm [5]: -0.0592

SMILES: CCC[C@@H]1CNCc2c1[nH]c(=O)c(C#N)c2N1CCC2(CC1)CC2
- inhibition [1]: -5.05%
- delta Tm Staurosporine positive control [2]: 17.7
- ΔTm [2]: -0.154
- delta Tm Staurosporine positive control [3]: 12.8
- ΔTm [3]: -0.119
- delta Tm Staurosporine positive control [4]: 7.39
- ΔTm [4]: -0.0953
- delta Tm Staurosporine positive control [5]: 19.1
- ΔTm [5]: -0.0429
